Experimental data: patent US20250035576A1, “AUTOMATED OXYGEN-DEPENDENT BLOOD FUNCTION MEASUREMENT SYSTEMS AND METHODS” (FLORIDA ATLANTIC UNIVERSITY BOARD OF TRUSTEES, priority 2023, published 2025)
“Also recorded” adds a separate entry of the source.

Columns and labels:
sickle cells [1] = test: Microfluidic assay of the efficacy of an anti-sickling oxygen modulator on patient samples; type: cell-based, human; settings: blood samples of 5 patients; FIG. 6D
Source text: This, however, could not be detected using conventional hematological assay, such as Hb electrophoresis or HPLC.

fetal hemoglobin (HbF) = settings: hematological response to HU, literature [38]; cited from earlier work
sickle cells [2] = test: Microfluidic sickle cell rheology assay (occlusion/obstruction at micro-slits) under controlled low O2 tension; type: cell-based, human; settings: sickle cells from patients with HU treatment vs without; PaO2 15 mm Hg, flow 60 s; FIG. 6B
Description: (§1) A study was conducted to develop and evaluate the exemplary system and method comprising microfluidic assays of sickle cell functional properties to provide quantitative assessments of disease heterogeneity and severity. A microfluidic strategy for on-chip O2 control was developed, which is critical to measure O2-dependent sickle cell functional properties. This method utilizes gas permeability of thin PDMS film (˜150 μm thick) that enables rapid diffusion of O2 at a specific PaO2 value from the gas channel to the cell channel. […]
(§2) Cell sickling events induced by exposing sickle cells to a transient hypoxia (e.g., reduce the atmospheric (atm) PaO2 to a low O2 tension level) are measured under stationary condition (FIG. 5A). […] Sickle cell rheology (deformability and occlusion) are measured under flow condition for 60 s, where sickle cells with extended delay time in HbS polymerization can escape the micro-slits but those containing rigid HbS fibers (undissolved HbS or hypoxia induced HbS fibers) lose their deformability and become trapped at the micro-slits (FIG. 5B). These two aspects of sickle cell behavior measured under controlled O2 tension (in exposure to testing PaO2 15 mm Hg briefly for 60 s) provided quantitative cell functional assessment, which show strong linear correlation to patient's HbS level, as obtained from standard HPLC (FIG. 5C and FIG. 5D). […]

sickle cells [3] = test: Microfluidic cell sickling assay (kinetics of cell sickling) under controlled low O2 tension, cell-imaging analysis; type: cell-based, human; settings: sickle cells from patients on HU treatment vs off HU; PaO2 15 mm Hg; FIG. 6A
Description: as §1, §2

SMILES | dose dependence of anti-sickling efficacy, patient-specific response (sickle cells [1]) | HbF level in some patients (fetal hemoglobin (HbF)) | occlusion fraction (obstruction in micro-slits) (sickle cells [2]) | delay time of cell sickling events (sickle cells [3])
O=Cc1ccc(CO)o1 [5HMF, 5-(hydroxymethyl) furfural] | patient-specific response; also recorded: dosedependence is similar among 5 patients, but significant variations exist | – | – | –
NC(=O)NO [HU, hydroxyurea] | – | up to 40% | much less obstruction | significantly extended
